This is an account of results in PMC6332026, “Synthesis and Pharmacochemistry of New Pleiotropic Pyrrolyl Derivatives” (Molecules, 2015).

Data set [1] is described as follows: Superoxide radical scavenging activity (non-enzymatic, PMS/NADH, NBT method). Particulars: 100 μM. An excerpt:
Superoxide anion radical is an active form of oxygen, and it is the product of the one-electron reduction of […] oxygen. Herein, superoxide radicals were formed by mixing phenazine methosulfate (PMS) with NADH and air-oxygen. The production of radicals was estimated with the nitroblue-tetrazolium method (NBT). From the tested pyrroles, Compounds 2i and 2iii were equipotent (57%) scavengers. […] In contrast, the dipole moment appeared to be important. The values of the dipole, as calculated by the program Spartan v.5.1.3.
The superoxide anion radicals were produced non-enzymatically by mixing phenazine methosulfate (PMS) with NADH and air-oxygen. The production of superoxide radicals was estimated with the nitroblue-tetrazolium (NBT) method with 3 μΜ PMS, 78 μΜ NADH and 25 μΜ NBT in 19 μΜ phosphate buffer pH 7.4. The absorbance was measured at 560 nm at room temperature. The tested compounds were added in the mixture 2 min before the addition of NADH [52].

For data set [2], the system named is carrageenan-induced rat paw edema. The data set is described as follows: Inhibition of rat paw edema induced by carrageenan. The class given is in vivo, Fischer 344 rats. To be noted: intraperitoneally, 3.5 h; for inhibition in vivo at 10 µmol/kg: Rattus norvegicus, ip, 0.01 mmol/kg body weight, read-out: CPE % inhibition of rat paw edema induced by carrageenan.

In the next data set the target is T1, soybean lipoxygenase (Glycine max, UniProt P08170).
T1 construct: purchased Sigma Chemical, Co. (St. Louis, MO, USA)
T1 sequence (P08170 1-839): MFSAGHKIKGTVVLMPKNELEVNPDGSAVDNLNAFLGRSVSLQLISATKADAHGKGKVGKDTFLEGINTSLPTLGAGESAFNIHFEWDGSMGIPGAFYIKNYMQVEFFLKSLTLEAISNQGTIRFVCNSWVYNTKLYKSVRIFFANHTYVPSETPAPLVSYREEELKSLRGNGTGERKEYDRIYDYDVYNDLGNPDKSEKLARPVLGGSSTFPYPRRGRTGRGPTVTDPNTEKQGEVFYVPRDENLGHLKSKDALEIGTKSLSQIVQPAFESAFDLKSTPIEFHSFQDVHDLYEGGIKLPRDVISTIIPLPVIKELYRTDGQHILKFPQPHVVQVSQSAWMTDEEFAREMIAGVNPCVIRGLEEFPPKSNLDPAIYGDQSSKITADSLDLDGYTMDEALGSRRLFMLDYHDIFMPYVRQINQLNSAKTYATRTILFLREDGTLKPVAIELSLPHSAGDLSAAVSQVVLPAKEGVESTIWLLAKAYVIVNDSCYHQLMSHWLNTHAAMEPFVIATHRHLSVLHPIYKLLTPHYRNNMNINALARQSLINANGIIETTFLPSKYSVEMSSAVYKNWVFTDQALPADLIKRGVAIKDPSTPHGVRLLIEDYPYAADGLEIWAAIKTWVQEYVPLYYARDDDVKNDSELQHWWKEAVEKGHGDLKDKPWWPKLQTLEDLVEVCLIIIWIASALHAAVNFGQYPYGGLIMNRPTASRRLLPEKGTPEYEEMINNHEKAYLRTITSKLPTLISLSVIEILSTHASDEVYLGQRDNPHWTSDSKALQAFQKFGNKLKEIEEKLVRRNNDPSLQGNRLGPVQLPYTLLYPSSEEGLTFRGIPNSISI
In words: Inhibition of soybean lipoxygenase (UV absorbance-based enzyme assay). Type of data set: biochemical. Particulars: for inhibition at 100 µM: read-out: LOX % inhibition. Here is the method: Lipoxygenase catalyzes the first two steps in the metabolism of arachidonic acid to leukotrienes. LTB4 generation is important in the pathogenesis of neutrophil-mediated inflammatory diseases with a marked relation to the severity of cardiovascular diseases, asthma and cancer. We evaluated the synthesized pyrroles for their ability to inhibit soybean LOX by the UV absorbance-based enzyme assay. […] The inhibition of COX-2, as a peroxidase, was determined by a colorimetric assay with the oxidation of N,N,N′,N′-tetramethyl-p-phenylenediamine (TMPD).
The tested compounds were dissolved in DMSO, and the final concentration was 100 μΜ. The compounds were incubated at room temperature with sodium linoleate as a substrate (0.1 mL) in a buffer solution of Tris:HCl (pH 9.00) and 0.2 mL of a solution of soybean lipoxygenase.

In the next data set the target is T2, COX-2 (Homo sapiens, UniProt P35354).
T2 sequence (P35354 18-604): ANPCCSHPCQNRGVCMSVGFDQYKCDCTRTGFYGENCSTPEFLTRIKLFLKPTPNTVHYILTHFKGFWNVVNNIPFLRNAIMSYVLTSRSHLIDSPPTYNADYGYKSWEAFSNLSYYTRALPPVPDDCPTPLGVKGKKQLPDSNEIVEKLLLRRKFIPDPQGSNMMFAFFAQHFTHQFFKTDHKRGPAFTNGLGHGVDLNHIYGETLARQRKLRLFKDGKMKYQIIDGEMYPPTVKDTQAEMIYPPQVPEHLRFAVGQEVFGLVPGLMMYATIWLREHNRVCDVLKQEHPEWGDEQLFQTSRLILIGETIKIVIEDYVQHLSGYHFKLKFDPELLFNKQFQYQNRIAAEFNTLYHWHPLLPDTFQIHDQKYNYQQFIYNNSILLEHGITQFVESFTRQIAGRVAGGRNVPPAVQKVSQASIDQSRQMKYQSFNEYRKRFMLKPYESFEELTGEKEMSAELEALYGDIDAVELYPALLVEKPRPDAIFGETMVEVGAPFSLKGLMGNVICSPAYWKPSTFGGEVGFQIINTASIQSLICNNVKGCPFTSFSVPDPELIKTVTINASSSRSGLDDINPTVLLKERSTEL
The data set is described as follows: Inhibition of cycloxygenase-2 (colorimetric TMPD assay). Particulars: for inhibition at 100 µM: read-out: COX-2 % inhibition; for COX-2 % inhibition: 100 μM.

The term melting point denotes the temperature of the solid-liquid transition. In general, IC50 refers to the midpoint of a concentration-inhibition curve. As a reminder, the inhibition is how much of the control response was suppressed.

Entries after “also recorded” stand apart in the source; their conditions may differ. Marks after values point to notes of the source that are not given here.

Method for COX-2: COX-2 inhibitory activity was determined by using arachidonic acid (AA) as a substrate in buffer (0.1 M Tris pH 8.5) and TMPD as a co-substrate.

In turn, `O=C(c1cccs1)c1c[nH]cc1-c1cccc(Oc2ccccc2)c1` [Compound 2i, [4-(3-Phenoxyphenyl)-1H-pyrrol-3-yl](thien-2-yl)methanone] displayed a melting point of 165 to 166 °C. For the same compound, the “O2^•− % superoxide radical scavenging activity” value in data set [1] is on record as 57%. The “ED50 (carrageenan rat paw edema)” value in data set [2] is recorded as 0.061 ^c mmol/kg Body Weight. Besides, the IC50 at soybean lipoxygenase (pH 9.00, read-out: LOX IC50) was 1000 µM. At COX-2, the inhibition at 100 µM stood at 67.2%.
As for `O=C(c1cccs1)c1c[nH]cc1-c1ccc(OCc2ccc(Br)cc2)cc1` [Compound 2iii, (4-{4-[(4-Bromobenzyl)oxy]phenyl}-1H-pyrrol-3-yl)(thien-2-yl)methanone], the melting point lay within 233 to 235 °C. For the same compound, the “O2^•− % superoxide radical scavenging activity” value in data set [1] amounted to 57%. Also, in data set [2], the inhibition in vivo at 10 µmol/kg was 89% and the “ED50 (carrageenan rat paw edema)” value was 0.052 mmol/kg Body Weight. In addition, the COX-2 % inhibition result on COX-2 is “inactive; also recorded: without any activity”.
In turn, `O=C(c1ccccc1)c1c[nH]cc1-c1cccc2ccccc12` [Compound 2iv, [4-(Naphth-1-yl)-1H-pyrrol-3-yl](phenyl)methanone] had a melting point of 270 to 272 °C. Also, in data set [1], the “O2^•− % superoxide radical scavenging activity” value turned out to be 76%. The inhibition in vivo at 10 µmol/kg in data set [2] turned out to be 75%. The inhibition at 100 µM at soybean lipoxygenase was determined as 10%. For the same compound, the COX-2 % inhibition entry at COX-2 is “inactive”.
The compound `O=C(c1ccc(Cl)cc1)c1c[nH]cc1-c1cccc2ccccc12` [Compound 2v, (4-Chlorophenyl)[4-(naphth-1-yl)-1H-pyrrol-3-yl]methanone] registered a melting point of 285 to 286 °C. Besides, the “O2^•− % superoxide radical scavenging activity” value in data set [1] was “inactive”. Also, in data set [2], the inhibition in vivo at 10 µmol/kg came to 78% and the “ED50 (carrageenan rat paw edema)” value was 0.063 mmol/kg Body Weight. Further, at soybean lipoxygenase, the inhibition at 100 µM amounted to 32%. Moreover, the inhibition at 100 µM at COX-2 was 81%.
